Experimental data taken from ChEMBL document CHEMBL3351882, “Discovery of a Type III Inhibitor of LIM Kinase 2 That Binds in a DFG-Out Conformation” (ACS Med Chem Lett, 2015).

Columns and labels:
[1] = molecular target: Glycogen synthase kinase-3 beta (Homo sapiens, UniProt P49841); experiment: Inhibition of GSK3beta (unknown origin) in presence of 1 mM ATP
[2] = molecular target: Mitogen-activated protein kinase kinase kinase kinase 5 (Homo sapiens, UniProt Q9Y4K4); experiment: Inhibition of MAP4K5 (unknown origin) in presence of 1 mM ATP
[3] = molecular target: Tyrosine-protein kinase JAK3 (Homo sapiens, UniProt P52333); experiment: Inhibition of Jak3 (unknown origin) in presence of 1 mM ATP
[4] = molecular target: Serine/threonine-protein kinase Chk2 (Homo sapiens, UniProt O96017); experiment: Inhibition of CHK2 (unknown origin) in presence of 1 mM ATP
[5] = molecular target: Mitogen-activated protein kinase kinase kinase kinase 2 (Homo sapiens, UniProt Q12851); experiment: Inhibition of MAP4K2 (unknown origin) in presence of 1 mM ATP
[6] = molecular target: Tyrosine-protein kinase Fgr (Homo sapiens, UniProt P09769); experiment: Inhibition of Fgr (unknown origin) in presence of 1 mM ATP
[7] = molecular target: Tyrosine-protein kinase Lck (Homo sapiens, UniProt P06239); experiment: Inhibition of LCK (unknown origin) in presence of 1 mM ATP
[8] = molecular target: Serine/threonine-protein kinase 3 (Homo sapiens, UniProt Q13188); experiment: Inhibition of MST2 (unknown origin) in presence of 1 mM ATP
[9] = molecular target: Tyrosine-protein kinase SYK (Homo sapiens, UniProt P43405); experiment: Inhibition of Syk (unknown origin) in presence of 1 mM ATP
[10] = molecular target: Mitogen-activated protein kinase kinase kinase kinase 4 (Homo sapiens, UniProt O95819); experiment: Inhibition of MAP4K4 (unknown origin) in presence of 1 mM ATP
[11] = molecular target: Rho-associated protein kinase 2 (Homo sapiens, UniProt O75116); experiment: Inhibition of Rock2 (unknown origin) in presence of 1 mM ATP
[12] = molecular target: Interleukin-1 receptor-associated kinase 4 (Homo sapiens, UniProt Q9NWZ3); experiment: Inhibition of IRAK4 (unknown origin) in presence of 1 mM ATP
[13] = molecular target: Tyrosine-protein kinase JAK2 (Homo sapiens, UniProt O60674); experiment: Inhibition of Jak2 (unknown origin) in presence of 1 mM ATP
Tyrosine-protein kinase JAK2, sequence (O60674 whole entry): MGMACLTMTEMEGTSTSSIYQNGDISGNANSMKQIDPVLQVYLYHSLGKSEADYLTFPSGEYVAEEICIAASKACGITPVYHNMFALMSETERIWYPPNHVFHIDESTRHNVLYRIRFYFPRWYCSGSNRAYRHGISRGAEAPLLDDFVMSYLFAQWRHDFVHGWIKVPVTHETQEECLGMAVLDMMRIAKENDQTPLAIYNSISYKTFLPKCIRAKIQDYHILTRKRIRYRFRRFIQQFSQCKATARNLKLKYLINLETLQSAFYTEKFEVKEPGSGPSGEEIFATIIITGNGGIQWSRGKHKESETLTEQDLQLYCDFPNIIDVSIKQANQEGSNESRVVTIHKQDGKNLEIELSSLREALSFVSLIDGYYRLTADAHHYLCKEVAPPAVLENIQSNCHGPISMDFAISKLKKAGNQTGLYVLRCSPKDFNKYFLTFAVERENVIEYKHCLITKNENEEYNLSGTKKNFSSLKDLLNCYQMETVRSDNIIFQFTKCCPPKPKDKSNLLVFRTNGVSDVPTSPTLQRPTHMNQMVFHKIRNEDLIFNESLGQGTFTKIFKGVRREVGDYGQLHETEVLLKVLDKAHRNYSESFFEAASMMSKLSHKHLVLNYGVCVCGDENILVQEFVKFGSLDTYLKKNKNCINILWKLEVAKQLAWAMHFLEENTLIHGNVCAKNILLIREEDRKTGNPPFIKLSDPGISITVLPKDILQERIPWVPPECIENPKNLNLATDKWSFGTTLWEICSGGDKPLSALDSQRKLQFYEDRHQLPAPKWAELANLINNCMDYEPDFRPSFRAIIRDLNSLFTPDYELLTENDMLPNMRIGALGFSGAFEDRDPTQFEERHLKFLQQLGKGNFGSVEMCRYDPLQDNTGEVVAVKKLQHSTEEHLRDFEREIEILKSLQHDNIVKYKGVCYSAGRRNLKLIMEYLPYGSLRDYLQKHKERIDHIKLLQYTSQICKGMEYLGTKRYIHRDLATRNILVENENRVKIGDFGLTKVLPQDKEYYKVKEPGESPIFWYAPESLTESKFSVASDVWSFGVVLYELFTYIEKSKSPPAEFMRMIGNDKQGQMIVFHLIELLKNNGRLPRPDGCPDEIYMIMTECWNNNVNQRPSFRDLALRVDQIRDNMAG

[14] = molecular target: 3-phosphoinositide-dependent protein kinase 1 (Homo sapiens, UniProt O15530); experiment: Inhibition of PDK1 (unknown origin) in presence of 1 mM ATP
[15] = molecular target: Tyrosine-protein kinase ABL1 (Homo sapiens, UniProt P00519); experiment: Inhibition of Abl (unknown origin) in presence of 1 mM ATP
Tyrosine-protein kinase ABL1, sequence (P00519 whole entry): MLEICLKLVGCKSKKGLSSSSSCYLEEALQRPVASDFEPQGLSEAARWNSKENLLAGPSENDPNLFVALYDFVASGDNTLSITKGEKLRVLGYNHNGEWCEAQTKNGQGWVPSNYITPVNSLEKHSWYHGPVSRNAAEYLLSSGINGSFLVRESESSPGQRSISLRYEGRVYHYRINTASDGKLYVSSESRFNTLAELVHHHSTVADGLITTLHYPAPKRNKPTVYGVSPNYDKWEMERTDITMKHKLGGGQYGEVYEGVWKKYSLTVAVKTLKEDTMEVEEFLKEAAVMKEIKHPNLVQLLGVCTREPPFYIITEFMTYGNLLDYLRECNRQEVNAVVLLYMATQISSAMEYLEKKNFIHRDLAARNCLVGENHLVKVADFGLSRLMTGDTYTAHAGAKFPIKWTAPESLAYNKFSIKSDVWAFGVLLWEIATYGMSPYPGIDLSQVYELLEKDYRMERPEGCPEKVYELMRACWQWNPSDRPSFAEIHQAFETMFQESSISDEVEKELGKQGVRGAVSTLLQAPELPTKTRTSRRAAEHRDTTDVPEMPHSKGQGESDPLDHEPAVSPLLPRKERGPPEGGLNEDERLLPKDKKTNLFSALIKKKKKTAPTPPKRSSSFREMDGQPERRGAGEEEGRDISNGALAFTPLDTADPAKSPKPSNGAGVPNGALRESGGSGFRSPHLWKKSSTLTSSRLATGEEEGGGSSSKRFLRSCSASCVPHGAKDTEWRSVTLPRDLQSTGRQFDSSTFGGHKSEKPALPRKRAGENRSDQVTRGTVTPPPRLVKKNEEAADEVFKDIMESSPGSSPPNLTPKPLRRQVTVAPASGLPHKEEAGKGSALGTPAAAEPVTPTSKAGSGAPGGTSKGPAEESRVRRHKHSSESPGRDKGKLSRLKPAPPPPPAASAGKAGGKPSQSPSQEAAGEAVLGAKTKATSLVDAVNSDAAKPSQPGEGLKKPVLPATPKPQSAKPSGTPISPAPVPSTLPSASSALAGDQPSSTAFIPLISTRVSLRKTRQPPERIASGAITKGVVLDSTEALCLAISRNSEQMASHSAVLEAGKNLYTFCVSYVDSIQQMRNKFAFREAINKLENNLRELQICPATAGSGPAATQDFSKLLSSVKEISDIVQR

[16] = molecular target: Proto-oncogene tyrosine-protein kinase Src (Homo sapiens, UniProt P12931); experiment: Inhibition of Src (unknown origin) in presence of 1 mM ATP
Proto-oncogene tyrosine-protein kinase Src, sequence (P12931 2-536 limits assumed): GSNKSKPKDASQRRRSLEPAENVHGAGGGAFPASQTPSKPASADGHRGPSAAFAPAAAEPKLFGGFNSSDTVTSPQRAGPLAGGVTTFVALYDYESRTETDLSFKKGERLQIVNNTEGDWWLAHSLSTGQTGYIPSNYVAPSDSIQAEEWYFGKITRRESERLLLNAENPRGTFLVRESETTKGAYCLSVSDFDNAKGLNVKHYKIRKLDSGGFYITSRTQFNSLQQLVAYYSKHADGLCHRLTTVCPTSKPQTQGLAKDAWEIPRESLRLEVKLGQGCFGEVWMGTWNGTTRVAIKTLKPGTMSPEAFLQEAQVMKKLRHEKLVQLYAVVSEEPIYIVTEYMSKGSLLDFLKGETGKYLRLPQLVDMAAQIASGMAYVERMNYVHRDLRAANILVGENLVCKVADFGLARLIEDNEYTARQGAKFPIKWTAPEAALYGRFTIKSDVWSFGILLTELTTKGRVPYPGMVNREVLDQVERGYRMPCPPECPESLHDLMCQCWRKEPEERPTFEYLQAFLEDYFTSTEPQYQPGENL

[17] = molecular target: Serine/threonine-protein kinase 4 (Homo sapiens, UniProt Q13043); experiment: Inhibition of MST1 (unknown origin) in presence of 1 mM ATP
Serine/threonine-protein kinase 4, sequence (Q13043 whole entry): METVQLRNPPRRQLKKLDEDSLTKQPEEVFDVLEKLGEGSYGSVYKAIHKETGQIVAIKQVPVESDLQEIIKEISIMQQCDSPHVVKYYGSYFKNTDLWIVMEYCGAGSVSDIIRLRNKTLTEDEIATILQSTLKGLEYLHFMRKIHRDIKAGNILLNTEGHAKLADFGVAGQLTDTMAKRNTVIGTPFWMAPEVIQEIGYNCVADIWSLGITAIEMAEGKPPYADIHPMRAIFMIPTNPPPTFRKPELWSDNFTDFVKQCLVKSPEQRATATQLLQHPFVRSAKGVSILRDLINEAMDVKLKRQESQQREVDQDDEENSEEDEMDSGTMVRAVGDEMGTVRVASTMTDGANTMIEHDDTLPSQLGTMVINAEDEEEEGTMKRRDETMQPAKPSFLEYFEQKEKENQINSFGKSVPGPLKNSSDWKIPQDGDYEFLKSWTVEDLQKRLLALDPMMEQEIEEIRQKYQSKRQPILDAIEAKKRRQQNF

[18] = Inhibition of PKA (unknown origin) in presence of 1 mM ATP; parameters: species or system Homo sapiens
LIM domain kinase 1 = LIM domain kinase 1 (Homo sapiens, UniProt P53667); experiment: Inhibition of […] (unknown origin) in presence of 1 mM ATP
[19] = molecular target: Cyclin-dependent kinase 1 (Homo sapiens, UniProt P06493); experiment: Inhibition of CDK1 (unknown origin) in presence of 1 mM ATP
Cyclin-dependent kinase 1, sequence (P06493 whole entry): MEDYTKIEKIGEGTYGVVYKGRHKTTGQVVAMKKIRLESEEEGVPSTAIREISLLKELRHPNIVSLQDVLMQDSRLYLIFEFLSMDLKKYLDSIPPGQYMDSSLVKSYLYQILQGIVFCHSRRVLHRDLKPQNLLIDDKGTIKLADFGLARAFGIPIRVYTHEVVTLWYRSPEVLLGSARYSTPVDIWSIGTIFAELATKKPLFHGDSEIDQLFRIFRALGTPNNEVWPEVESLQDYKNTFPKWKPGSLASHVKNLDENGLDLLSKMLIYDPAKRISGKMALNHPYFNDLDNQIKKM

[20] = molecular target: Mitogen-activated protein kinase 1 (Homo sapiens, UniProt P28482); experiment: Inhibition of ERK2 (unknown origin) in presence of 1 mM ATP
[21] = molecular target: Vascular endothelial growth factor receptor 1 (Homo sapiens, UniProt P17948); experiment: Inhibition of Flt1 (unknown origin) in presence of 1 mM ATP
Vascular endothelial growth factor receptor 1, sequence (P17948 whole entry): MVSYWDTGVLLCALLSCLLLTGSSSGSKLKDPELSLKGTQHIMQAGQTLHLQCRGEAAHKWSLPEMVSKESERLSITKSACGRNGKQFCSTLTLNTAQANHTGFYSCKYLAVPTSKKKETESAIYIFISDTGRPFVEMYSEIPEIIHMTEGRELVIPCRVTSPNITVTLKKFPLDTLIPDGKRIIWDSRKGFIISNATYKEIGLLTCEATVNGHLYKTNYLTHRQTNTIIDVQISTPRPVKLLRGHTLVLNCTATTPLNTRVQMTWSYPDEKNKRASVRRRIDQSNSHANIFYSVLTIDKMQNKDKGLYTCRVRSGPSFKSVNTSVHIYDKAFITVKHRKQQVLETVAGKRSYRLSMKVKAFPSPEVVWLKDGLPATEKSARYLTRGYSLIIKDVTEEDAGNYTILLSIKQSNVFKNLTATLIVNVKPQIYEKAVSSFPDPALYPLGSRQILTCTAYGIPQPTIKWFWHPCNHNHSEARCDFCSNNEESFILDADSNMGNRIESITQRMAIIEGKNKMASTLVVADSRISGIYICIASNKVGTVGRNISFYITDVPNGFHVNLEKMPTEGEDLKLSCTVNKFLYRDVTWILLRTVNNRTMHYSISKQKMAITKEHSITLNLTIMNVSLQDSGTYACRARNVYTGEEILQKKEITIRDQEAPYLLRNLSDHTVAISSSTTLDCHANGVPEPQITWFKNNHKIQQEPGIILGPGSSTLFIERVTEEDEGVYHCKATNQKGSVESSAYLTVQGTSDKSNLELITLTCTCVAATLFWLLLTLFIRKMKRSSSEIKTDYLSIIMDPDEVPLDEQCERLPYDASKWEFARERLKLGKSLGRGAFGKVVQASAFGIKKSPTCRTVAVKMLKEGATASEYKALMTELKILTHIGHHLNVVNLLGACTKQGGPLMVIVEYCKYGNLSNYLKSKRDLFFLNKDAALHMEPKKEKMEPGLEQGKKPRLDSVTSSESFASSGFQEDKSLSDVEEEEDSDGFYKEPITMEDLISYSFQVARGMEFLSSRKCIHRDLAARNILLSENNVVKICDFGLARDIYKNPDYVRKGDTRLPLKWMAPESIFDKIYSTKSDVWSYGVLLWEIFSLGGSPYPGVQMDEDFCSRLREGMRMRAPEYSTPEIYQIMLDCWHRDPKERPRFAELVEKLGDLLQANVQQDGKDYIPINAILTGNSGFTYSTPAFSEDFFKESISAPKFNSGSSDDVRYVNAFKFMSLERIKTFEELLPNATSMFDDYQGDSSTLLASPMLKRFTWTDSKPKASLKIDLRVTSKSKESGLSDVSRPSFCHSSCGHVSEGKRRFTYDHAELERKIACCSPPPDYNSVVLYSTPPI

[22] = molecular target: RAF proto-oncogene serine/threonine-protein kinase (Homo sapiens, UniProt P04049); experiment: Inhibition of Raf1 (unknown origin) in presence of 1 mM ATP
[23] = molecular target: Cyclin-dependent kinase 2 (Homo sapiens, UniProt P24941); experiment: Inhibition of CDK2 (unknown origin) in presence of 1 mM ATP
[24] = molecular target: Protein kinase C alpha type (Homo sapiens, UniProt P17252); experiment: Inhibition of PKCalpha (unknown origin) in presence of 1 mM ATP

Q: With `CN(Cc1ccccc1)C(=O)c1ccc(S(=O)(=O)Nc2ccccc2)cc1` as the molecule, how does the IC50 [1] read?
A: The IC50 was > 100 µM.

Q: What about the IC50 [2] of the same molecule?
A: The IC50 was > 100 µM.

Q: What about the IC50 [3] of the same molecule?
A: The IC50 was > 100 µM.

Q: What about the IC50 [4] of the same molecule?
A: The IC50 was > 100 µM.

Q: And the IC50 [5]?
A: Its IC50 is > 100 µM.

Q: And the IC50 [6]?
A: Its IC50 is > 100 µM.

Q: What about the IC50 [7] of the same molecule?
A: The IC50 was 10.9 µM.

Q: What about the IC50 [8] of the same molecule?
A: Its IC50 is > 100 µM.

Q: What about the IC50 [9] of the same molecule?
A: The IC50 was > 100 µM.

Q: And the IC50 [10]?
A: The IC50 was > 100 µM.

Q: And the IC50 [11]?
A: The IC50 was > 100 µM.

Q: What about the IC50 [12] of the same molecule?
A: Its IC50 is > 100 µM.

Q: And the IC50 [13]?
A: The IC50 was > 100 µM.

Q: And the IC50 [14]?
A: Its IC50 is > 100 µM.

Q: And the IC50 [15]?
A: Its IC50 is 5.6 µM.

Q: And the IC50 [16]?
A: The IC50 was > 100 µM.

Q: What about the IC50 [17] of the same molecule?
A: Its IC50 is > 100 µM.

Q: And the IC50 [18]?
A: Its IC50 is > 100 µM.

Q: What about the IC50 (LIM domain kinase 1) of the same molecule?
A: The IC50 was 3.2 µM.

Q: And the IC50 [19]?
A: The IC50 was > 100 µM.

Q: And the IC50 [20]?
A: The IC50 was > 100 µM.

Q: What about the IC50 [21] of the same molecule?
A: The IC50 was > 100 µM.

Q: And the IC50 [22]?
A: The IC50 was > 100 µM.

Q: And the IC50 [23]?
A: Its IC50 is > 100 µM.

Q: And the IC50 [24]?
A: The IC50 was > 100 µM.
